Read-outs that look alike come from different tables or passages of the source.
Legend:
[1] = Microsomal stability, human liver microsomes (predicted hepatic clearance); settings: predicted from in vitro microsomal stability data
GLP-1R = GLP-1R (Homo sapiens, UniProt P43220); experiment: GLP-1R activation: cAMP increase in CHO cells stably expressing GLP-1R; format: cell-based
[2] = cAMP increase, CHO cells stably expressing GLP-1R, 10 point dose response, 30 minutes incubation, read-out: EC50

Chain of GLP-1R (P43220 24-463): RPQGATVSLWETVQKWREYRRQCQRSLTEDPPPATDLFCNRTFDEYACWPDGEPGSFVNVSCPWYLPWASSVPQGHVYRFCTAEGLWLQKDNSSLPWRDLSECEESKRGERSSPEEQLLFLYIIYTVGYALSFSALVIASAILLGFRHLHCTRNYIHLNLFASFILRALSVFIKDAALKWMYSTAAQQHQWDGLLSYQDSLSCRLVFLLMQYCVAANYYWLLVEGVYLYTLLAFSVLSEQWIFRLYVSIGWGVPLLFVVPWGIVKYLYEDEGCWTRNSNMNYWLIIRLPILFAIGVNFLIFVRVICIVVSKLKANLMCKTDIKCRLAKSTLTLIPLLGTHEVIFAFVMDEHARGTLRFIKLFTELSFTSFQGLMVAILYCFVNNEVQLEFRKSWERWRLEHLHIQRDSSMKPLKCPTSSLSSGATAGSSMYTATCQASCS

SMILES | Predicted Hepatic Clearance (Pred. Cl.) [1] | EC50 (GLP-1R; [2]) | EC50 (GLP-1R; EC50 (nM))
N#Cc1ccc(COc2cccc(-c3cc(F)c(Cc4nc5ccc(C(=O)O)cc5n4CC45COCC4C5(F)F)cc3F)n2)c(F)c1 (stereo not drawn) [Example 703] | 5.67 mL/min/kg | 1.01 nM | –
N#Cc1ccc(COc2cccc(-c3cc(F)c(Cc4nc5ccc(C(=O)O)cc5n4C[C@@H]4CCCO4)cc3F)n2)c(F)c1 [Example 840] | 4.83 mL/min/kg | 1.11 nM | –
COCCn1c(Cc2ccc(-c3cccc(OCc4ccc(C#N)cc4F)n3)cc2C#CC(C)(C)O)nc2ccc(C(=O)O)cc21 [Example 419, 2-(4-(6-((4-cyano-2-fluorobenzyl)oxy)pyridin-2-yl)-2-(3-hydroxy-3-methylbut-1-yn-1-yl)benzyl)-1-(2-methoxyethyl)-1H-benzo[d]imidazole-6-carboxylic acid] | 7.33 mL/min/kg | 20.7 nM | –
N#CCC1(Cn2c(Cc3ccc(-c4cccc(OCc5ccc(C#N)cc5F)n4)c(F)c3)nc3ccc(C(=O)O)cc32)CC1 [Example 530, 2-(4-(6-((4-cyano-2-fluorobenzyl)oxy)pyridin-2-yl)-3-fluorobenzyl)-1-((1-(cyanomethyl)cyclopropyl)methyl)-1H-benzo[d]imidazole-6-carboxylic acid] | 10.5 mL/min/kg | 0.43 nM | –
COCCn1c(Cc2ccc(-c3cccc(OCc4ccc(C#N)cc4F)n3)cc2F)nc2cccc(C(=O)O)c21 [Example 201, 2-(4-(6-((4-cyano-2-fluorobenzyl)oxy)pyridin-2-yl)-2-fluorobenzyl)-1-(2-methoxyethyl)-1H-benzo[d]imidazole-7-carboxylic acid] | 3 mL/min/kg | 4420 nM | –
COCCn1c(Cc2ccc(-c3cccc(OCc4ccc(C#N)cc4F)n3)c(Cl)c2)nc2ccc(C(=O)O)cc21 [Example 101, 2-(3-chloro-4-(6-((4-cyano-2-fluorobenzyl)oxy)pyridin-2-yl)benzyl)-1-(2-methoxyethyl)-1H-benzo[d]imidazole-6-carboxylic acid] | 6.7 mL/min/kg | 25.9 nM | –
COC[C@@H](c1ccccc1)n1c(Cc2cc(F)c(-c3cccc(OCc4ccc(C#N)cc4F)n3)cc2F)nc2ccc(C(=O)O)cc21 [Example 716] | 2.17 mL/min/kg | 2740 nM | –
COCCn1c(Cc2c(F)cc(-c3cccc(OCc4ccc(C#N)cc4F)n3)c(F)c2F)nc2ccc(C(=O)O)cc21 [Example 401, 2-(4-(6-((4-cyano-2-fluorobenzyl)oxy)pyridin-2-yl)-2,3,6-trifluorobenzyl)-1-(2-methoxyethyl)-1H-benzo[d]imidazole-6-carboxylic acid] | 6.92 mL/min/kg | – | 1.34 nM
N#Cc1ccc(COc2cccc(-c3cc(F)c(Cc4nc5ccc(C(=O)O)cc5n4CC45COC(C4)C5)cc3F)n2)c(F)c1 [Example 624] | 5 mL/min/kg | 1.68 nM | –
COCCn1c(Cc2ccc(-c3cccc(OCc4ccc(C5(F)COC5)cc4)n3)cc2F)nc2ccc(C(=O)O)cc21 [Example 460, 2-(2-fluoro-4-(6-((4-(3-fluorooxetan-3-yl)benzyl)oxy)pyridin-2-yl)benzyl)-1-(2-methoxyethyl)-1H-benzo[d]imidazole-6-carboxylic acid] | 12.5 mL/min/kg | 15.7 nM | –
CC1(C)COC1Cn1c(Cc2ccc(-c3cccc(OCc4ccc(C#N)cc4F)n3)cc2F)nc2ccc(C(=O)O)cc21 (stereo not drawn) [Example 264, 2-(4-(6-((4-cyano-2-fluorobenzyl)oxy)pyridin-2-yl)-2-fluorobenzyl)-1-((3,3-dimethyloxetan-2-yl)methyl)-1H-benzo[d]imidazole-6-carboxylic acid] | 4 mL/min/kg | 26.2 nM | –
COCCn1c(Cc2ccc(-c3cccc(OCc4ccc(C#N)cc4F)n3)cc2OC(F)F)nc2ccc(C(=O)O)cc21 [Example 42, 2-(4-(6-((4-cyano-2-fluorobenzyl)oxy)pyridin-2-yl)-2-(difluoromethoxy)benzyl)-1-(2-methoxyethyl)-1H-benzo[d]imidazole-6-carboxylic acid] | 3.83 mL/min/kg | 38.2 nM | –

— US11702404B2, “GLP-1R modulating compounds” (priority 2019, dated 2023)
